Assay results from patent US20250177405A1, “METHODS OF TREATING NEUROLOGICAL AND CARDIOVASCULAR CONDITIONS” (ASTROCYTE PHARMACEUTICALS, INC., priority 2021, published 2025).

How the values were obtained:
[1] = system: traumatic brain injury (TBI) in mice; assay: mouse traumatic brain injury (TBI) model; settings: in vivo
Protocol: Animals and traumatic brain injury (TBI): TBI is performed with a controlled closed skull injury model as described in Talley-Watts et al. 2012 (J. Neurotrauma 30, 55-66). Following the method described therein, a pneumatic impact device is used to generate a moderate TBI leaving the skull and dura matter intact. To achieve this, C57BL/6 mice are anesthetized with isoflurane (3% induction, 1% maintenance) in 100% oxygen. A body temperature of 37° C. is maintained using a temperature-controlled heated surgical table. A small midline incision is made on the scalp using aseptic surgical techniques. A 5 mm stainless steel disc is positioned on the skull and fixed using superglue on the right parietal bone between bregma and lamda over the somatosensory cortex. The mouse is then positioned on a stage directly under the pneumatic impact tip. […] Mice are placed in a Thermo-Intensive Care Unit (Braintree Scientific model FV-1; 37° C.; 27% O2) and monitored until fully awake and moving freely. […]
Western Blot Analysis for GFAP: At selected survival times, mice are anesthetized under isoflurane and sacrificed. […] The homogenate is transferred to a 2 mL tube and centrifuged at 1000 g for 10 minutes at 4° C. and the supernatant is collected and analyzed. Protein concentration is determined by the BCA assay using a 1:50 dilution. […]

[2] = plasma protein binding (free fraction); type: in vitro ADME; settings: mouse
From the text: (§1) Example 3 of U.S. Pat. No. 9,789,131, which is incorporated herein by reference, describes assays for determining the plasma and brain free fraction of certain compounds such as I-1. Compounds described herein may be evaluated using such assays or similar variants thereof.

[3] = brain tissue binding (free fraction); type: in vitro ADME, mouse; settings: mouse brain tissue
From the text: as §1

[4] = system: rodent model of cerebral ischemia; assay: reproduction of Roucher study: ATP decline during cerebral ischemia; type: in vivo, rat; settings: dose of 0.02 mg/kg, rats
From the text: As part of the current study, we first reproduced the original Roucher results.
(§2) We therefore performed the same study using ^31P-ATP and measured the receptor engagement in the brain associated with the beneficial ATP effects.

[5] = biological target: T1, A1R (Rattus norvegicus, UniProt P25099); assay: estimated brain receptor occupancy of R-PIA at A1R; type: in vivo; settings: associated with beneficial ATP effects
T1 construct: measured the receptor engagement in the brain associated with the beneficial ATP effects; from tissue; host or cells: brain of living rats (cerebral ischemia model)
T1 sequence (P25099 1-326): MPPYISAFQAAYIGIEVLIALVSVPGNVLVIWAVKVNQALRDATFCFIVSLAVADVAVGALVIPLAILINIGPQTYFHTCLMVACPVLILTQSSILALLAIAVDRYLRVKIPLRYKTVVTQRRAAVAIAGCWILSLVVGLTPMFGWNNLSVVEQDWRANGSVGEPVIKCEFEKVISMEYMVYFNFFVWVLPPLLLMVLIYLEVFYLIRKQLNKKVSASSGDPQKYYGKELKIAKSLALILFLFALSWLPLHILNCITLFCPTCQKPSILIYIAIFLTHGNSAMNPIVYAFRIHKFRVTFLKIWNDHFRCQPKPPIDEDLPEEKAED
From the text: as §2

[6] = biological target: T2, A3R (Rattus norvegicus, UniProt P28647); assay: estimated brain receptor occupancy of R-PIA at A3R; type: in vivo; settings: associated with beneficial ATP effects
T2 sequence (P28647 1-320): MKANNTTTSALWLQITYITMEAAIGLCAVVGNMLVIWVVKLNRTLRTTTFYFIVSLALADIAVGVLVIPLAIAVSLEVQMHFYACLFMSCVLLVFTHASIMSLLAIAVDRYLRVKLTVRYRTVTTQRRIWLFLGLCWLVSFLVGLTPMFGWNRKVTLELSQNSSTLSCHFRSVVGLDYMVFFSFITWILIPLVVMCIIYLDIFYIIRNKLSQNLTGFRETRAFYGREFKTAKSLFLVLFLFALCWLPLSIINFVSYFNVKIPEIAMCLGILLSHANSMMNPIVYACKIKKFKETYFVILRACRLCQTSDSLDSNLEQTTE
From the text: as §2

[7] = biological target: T2, A3R; settings: cited from earlier work
[8] = system: reversible forebrain ischemia in the rat; settings: cited from earlier work

Row | SMILES | efficacy in mouse TBI model [1] | free (unbound) fraction in plasma [2] | free (unbound) fraction in brain [3] | decline in ATP during ischemia [4] | estimated RO % for A1R [5] [%] | estimated RO % for A3R [6] [%] | Ki [7] [nM] | intracellular pH ([8]; 30-min ischemia, reference group 6.30) | effect on cerebral metabolism before ischemia ([8]; before ischemia) | phosphocreatine, % of the control level ([8]; end of 30-min ischemia, reference group 27+/−9%) | ATP, % of the control level ([8]; end of 30-min ischemia, reference group 40+/−23%) | inorganic phosphate, % of the control level ([8]; end of 30-min ischemia, reference group 905+/−229%) | recovery of PCr, ATP, Pi, and pHi to control levels ([8]; recirculation, versus reference group)
1 | CNC(=O)[C@H]1O[C@@H](n2cnc3c(NCc4cccc(I)c4)nc(Cl)nc32)[C@H](O)[C@@H]1O [Cl-IB-MECA, 2-Chloro-N^6-(3-iodobenzyl)-adenosine-5′-N-methyluronamide, reference compound] | weakly active | 0.002 | 0.002 |  |  |  |  |  |  |  |  |  | 
2 | C[C@H](Cc1ccccc1)Nc1ncnc2c1ncn2[C@@H]1O[C@H](CO)[C@@H](O)[C@H]1O [Compound I-25, N^6-(L-2-Phenylisopropyl)adenosine] |  |  |  | partial reversal | 16 | 1 | 158 | 6.40+/−0.10 | no effect | 43+/−11% | 58+/−12% | 672+/−210% | faster recovery
